The term IC50 denotes the concentration that gives 50% inhibition.

Each structure is given as a SMILES string. Active and inactive are the calls of the source. No cut-off for these calls is given here. Where a SMILES comes first, the peptide text is derived from it. Bridges are numbered along the chain shown (N, C = ends).

Our source for the IC50, Activity and inhibition values is ChEMBL document CHEMBL5055626 (J Med Chem, 2021).

Assay [1] deals with Neuronal acetylcholine receptor subunit alpha-7 (Rattus norvegicus, UniProt Q05941). Put plainly: Antagonist activity at rat alpha7 nAChR expressed in xenopus oocytes assessed as inhibition of Ach- induced response at -70 mV holding potential preincubated for 5 mins followed by Ach stimulation by voltage-clamp based electrophysiological method. In kind it is cell-based, Oocyte.
Neuronal acetylcholine receptor subunit alpha-7, sequence (Q05941 whole entry): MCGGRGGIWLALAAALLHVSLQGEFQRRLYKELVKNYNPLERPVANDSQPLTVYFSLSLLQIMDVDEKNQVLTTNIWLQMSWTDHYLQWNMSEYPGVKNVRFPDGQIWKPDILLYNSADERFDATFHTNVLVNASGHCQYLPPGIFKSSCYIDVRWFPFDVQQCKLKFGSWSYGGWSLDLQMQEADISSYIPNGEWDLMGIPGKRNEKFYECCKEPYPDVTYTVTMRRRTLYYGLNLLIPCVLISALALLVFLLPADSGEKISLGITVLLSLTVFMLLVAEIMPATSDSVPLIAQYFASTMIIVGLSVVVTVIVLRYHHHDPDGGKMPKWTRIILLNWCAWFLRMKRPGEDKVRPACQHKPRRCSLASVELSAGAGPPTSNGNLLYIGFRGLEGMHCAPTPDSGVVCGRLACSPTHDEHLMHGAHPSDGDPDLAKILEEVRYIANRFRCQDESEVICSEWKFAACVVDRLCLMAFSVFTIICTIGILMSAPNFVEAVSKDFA

The target in assay [2] is T1, Nicotinic acetylcholine receptor alpha6/alpha3/beta4 (Homo sapiens, UniProt P30926+P32297+Q15825). Put plainly: Antagonist activity at rat alpha6/alpha3beta4 nAChR expressed in xenopus oocytes assessed as inhibition of Ach- induced response at -70 mV holding potential preincubated for 5 mins followed by Ach stimulation by voltage-clamp based electrophysiological method. In kind it is cell-based, Oocyte.

For assay [3], the target named is Neuronal acetylcholine receptor; alpha3/beta2 (Rattus norvegicus, UniProt P04757+P12390). As to the kind of experiment: Antagonist activity at rat alpha3beta2 nAChR expressed in xenopus oocytes assessed as inhibition of Ach- induced response at -70 mV holding potential preincubated for 5 mins followed by Ach stimulation by voltage-clamp based electrophysiological method. Format: cell-based, Oocyte.
Neuronal acetylcholine receptor; alpha3/beta2, sequence (P04757 whole entry): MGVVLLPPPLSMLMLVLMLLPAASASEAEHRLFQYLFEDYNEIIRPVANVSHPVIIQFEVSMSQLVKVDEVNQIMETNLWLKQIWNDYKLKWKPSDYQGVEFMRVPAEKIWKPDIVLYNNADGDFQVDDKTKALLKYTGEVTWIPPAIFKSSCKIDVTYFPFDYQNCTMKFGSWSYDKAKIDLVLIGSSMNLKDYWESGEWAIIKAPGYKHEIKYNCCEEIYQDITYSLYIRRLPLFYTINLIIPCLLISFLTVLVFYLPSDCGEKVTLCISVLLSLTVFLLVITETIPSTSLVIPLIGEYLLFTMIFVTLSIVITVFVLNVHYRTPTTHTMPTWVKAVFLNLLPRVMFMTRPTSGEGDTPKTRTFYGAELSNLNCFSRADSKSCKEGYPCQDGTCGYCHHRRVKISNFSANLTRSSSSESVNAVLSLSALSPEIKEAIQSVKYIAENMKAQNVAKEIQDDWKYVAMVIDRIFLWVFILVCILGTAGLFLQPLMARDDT
Neuronal acetylcholine receptor; alpha3/beta2, sequence (P12390 whole entry): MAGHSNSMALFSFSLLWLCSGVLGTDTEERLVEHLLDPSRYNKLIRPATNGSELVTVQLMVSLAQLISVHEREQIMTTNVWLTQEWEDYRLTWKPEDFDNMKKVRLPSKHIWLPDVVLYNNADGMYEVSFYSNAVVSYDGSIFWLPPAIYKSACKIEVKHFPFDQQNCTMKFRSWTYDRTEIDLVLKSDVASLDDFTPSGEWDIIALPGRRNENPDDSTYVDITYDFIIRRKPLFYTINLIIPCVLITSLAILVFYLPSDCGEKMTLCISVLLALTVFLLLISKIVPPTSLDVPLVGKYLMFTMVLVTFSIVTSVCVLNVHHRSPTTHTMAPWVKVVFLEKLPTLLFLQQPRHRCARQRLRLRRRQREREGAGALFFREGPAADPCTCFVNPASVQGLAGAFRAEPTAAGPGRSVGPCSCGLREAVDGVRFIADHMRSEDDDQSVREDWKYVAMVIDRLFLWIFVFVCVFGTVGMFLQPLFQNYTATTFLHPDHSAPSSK

Assay [4] can be described thus: Antagonist activity at rat alpha6/ alpha3beta2beta3 nAChR expressed in xenopus oocytes assessed as inhibition of Ach- induced response at -70 mV holding potential preincubated for 5 mins followed by Ach stimulation by voltage-clamp based electrophysiological method. Format: cell-based. Conditions: Oocyte.
The target in assay [5] is Neuronal acetylcholine receptor; alpha2/beta2 (Rattus norvegicus, UniProt P12389+P12390). Put plainly: Antagonist activity at rat alpha2beta2 nAChR expressed in xenopus oocytes assessed as inhibition of Ach- induced response at -70 mV holding potential preincubated for 5 mins followed by Ach stimulation by voltage-clamp based electrophysiological method. In kind it is cell-based, Oocyte.

The target of assay [6] is Neuronal acetylcholine receptor; alpha2/beta4 (Rattus norvegicus, UniProt P12389+P12392). As to the kind of experiment: Antagonist activity at rat alpha2beta4 nAChR expressed in xenopus oocytes assessed as inhibition of Ach- induced response at -70 mV holding potential preincubated for 5 mins followed by Ach stimulation by voltage-clamp based electrophysiological method. In kind it is cell-based, Oocyte.

In assay [7] the target is Neuronal acetylcholine receptor; alpha3/beta4 (Rattus norvegicus, UniProt P04757+P12392). As to the kind of experiment: Antagonist activity at rat alpha3beta4 nAChR expressed in xenopus oocytes assessed as inhibition of Ach- induced response at -70 mV holding potential preincubated for 5 mins followed by Ach stimulation by voltage-clamp based electrophysiological method. In kind it is cell-based, Oocyte.
Neuronal acetylcholine receptor; alpha3/beta4, sequence (P04757 whole entry): as the sequence (P04757 whole entry) above
Neuronal acetylcholine receptor; alpha3/beta4, sequence (P12392 whole entry): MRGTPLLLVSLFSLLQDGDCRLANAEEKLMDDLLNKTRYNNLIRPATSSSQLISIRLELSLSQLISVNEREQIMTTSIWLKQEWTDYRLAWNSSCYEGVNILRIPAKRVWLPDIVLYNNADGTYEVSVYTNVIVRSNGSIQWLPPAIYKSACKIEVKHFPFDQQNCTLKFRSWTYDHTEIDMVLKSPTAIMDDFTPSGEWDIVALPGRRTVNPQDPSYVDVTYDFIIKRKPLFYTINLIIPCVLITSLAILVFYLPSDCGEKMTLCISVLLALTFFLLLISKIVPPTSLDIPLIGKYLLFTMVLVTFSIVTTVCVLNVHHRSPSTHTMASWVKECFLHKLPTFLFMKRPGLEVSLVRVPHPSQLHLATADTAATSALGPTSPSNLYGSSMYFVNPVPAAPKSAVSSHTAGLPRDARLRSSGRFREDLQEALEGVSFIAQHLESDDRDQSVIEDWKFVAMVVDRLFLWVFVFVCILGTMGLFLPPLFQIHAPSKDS

Assay [8] deals with Neuronal acetylcholine receptor; alpha4/beta2 (Rattus norvegicus, UniProt P09483+P12390). Put plainly: Antagonist activity at rat alpha4beta2 nAChR expressed in xenopus oocytes assessed as inhibition of Ach- induced response at -70 mV holding potential preincubated for 5 mins followed by Ach stimulation by voltage-clamp based electrophysiological method. In kind it is cell-based, Oocyte.
Neuronal acetylcholine receptor; alpha4/beta2, sequence (P09483 whole entry): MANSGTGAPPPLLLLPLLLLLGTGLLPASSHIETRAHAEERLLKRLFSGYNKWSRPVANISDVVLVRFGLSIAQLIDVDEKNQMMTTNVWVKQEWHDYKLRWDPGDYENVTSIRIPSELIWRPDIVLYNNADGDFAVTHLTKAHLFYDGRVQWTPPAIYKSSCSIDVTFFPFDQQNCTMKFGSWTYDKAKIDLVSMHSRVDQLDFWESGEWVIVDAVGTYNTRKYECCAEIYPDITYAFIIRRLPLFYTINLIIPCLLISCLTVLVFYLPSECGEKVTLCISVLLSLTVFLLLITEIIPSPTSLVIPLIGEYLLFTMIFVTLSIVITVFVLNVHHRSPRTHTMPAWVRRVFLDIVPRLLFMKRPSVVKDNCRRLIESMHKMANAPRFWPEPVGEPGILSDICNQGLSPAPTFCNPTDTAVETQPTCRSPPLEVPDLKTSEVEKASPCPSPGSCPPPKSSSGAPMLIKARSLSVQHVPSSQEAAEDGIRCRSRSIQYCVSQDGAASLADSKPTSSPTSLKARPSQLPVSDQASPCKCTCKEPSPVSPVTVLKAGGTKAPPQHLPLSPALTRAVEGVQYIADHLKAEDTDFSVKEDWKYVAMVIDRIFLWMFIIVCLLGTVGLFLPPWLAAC
Neuronal acetylcholine receptor; alpha4/beta2, sequence (P12390 whole entry): as the sequence (P12390 whole entry) above

The target of assay [9] is Neuronal acetylcholine receptor; alpha4/beta4 (Rattus norvegicus, UniProt P09483+P12392). As to the kind of experiment: Antagonist activity at rat alpha4beta4 nAChR expressed in xenopus oocytes assessed as inhibition of Ach- induced response at -70 mV holding potential preincubated for 5 mins followed by Ach stimulation by voltage-clamp based electrophysiological method. In kind it is cell-based, Oocyte.
Neuronal acetylcholine receptor; alpha4/beta4, sequence (P09483 whole entry): as the sequence (P09483 whole entry) above
Neuronal acetylcholine receptor; alpha4/beta4, sequence (P12392 whole entry): as the sequence (P12392 whole entry) above

Assay [10] concerns the target Nicotinic acetylcholine receptor alpha9/alpha10 (Rattus norvegicus, UniProt P43144+Q9JLB5). Put plainly: Antagonist activity at rat alpha9alpha10 nAChR expressed in xenopus oocytes assessed as inhibition of Ach- induced response at -70 mV holding potential preincubated for 5 mins followed by Ach stimulation by voltage-clamp based electrophysiological method. Format: cell-based, Oocyte.

For assay [11], the target named is T1, Nicotinic acetylcholine receptor alpha6/alpha3/beta4. As to the kind of experiment: Antagonist activity at rat alpha6/alpha3beta4 nAChR expressed in xenopus oocytes assessed as inhibition of Ach- induced response at 10^-5 M at -70 mV holding potential preincubated for 5 mins followed by Ach stimulation by voltage-clamp based electrophysiological method relative to control. Format: cell-based. Conditions: Oocyte, filed as antagonist, dose 1.0 10^-5M. Details: scale not given: the % may be the effect or the level left.

In assay [12] the target is Nicotinic acetylcholine receptor alpha9/alpha10 (Rattus norvegicus) (UniProt P43144+Q9JLB5). Put plainly: Antagonist activity at rat alpha9alpha10 nAChR expressed in xenopus oocytes assessed as inhibition of Ach- induced response at 10 uM at -70 mV holding potential preincubated for 5 mins followed by Ach stimulation by voltage-clamp based electrophysiological method. Format: cell-based. The conditions noted are these: Oocyte.

Assay [13] addresses Neuronal acetylcholine receptor; alpha2/beta2 (Rattus norvegicus) (UniProt P12389+P12390). As to the kind of experiment: Antagonist activity at rat alpha2beta2 nAChR expressed in xenopus oocytes assessed as inhibition of Ach- induced response at 10 uM at -70 mV holding potential preincubated for 5 mins followed by Ach stimulation by voltage-clamp based electrophysiological method. The conditions noted are these: Oocyte. Format: cell-based.

In assay [14] the target is Neuronal acetylcholine receptor; alpha2/beta4 (Rattus norvegicus) (UniProt P12389+P12392). As to the kind of experiment: Antagonist activity at rat alpha2beta4 nAChR expressed in xenopus oocytes assessed as inhibition of Ach- induced response at 10 uM at -70 mV holding potential preincubated for 5 mins followed by Ach stimulation by voltage-clamp based electrophysiological method. Conditions: Oocyte. In kind it is cell-based.

Assay [15] deals with Neuronal acetylcholine receptor; alpha3/beta4 (Rattus norvegicus) (UniProt P04757+P12392). Put plainly: Antagonist activity at rat alpha3beta4 nAChR expressed in xenopus oocytes assessed as inhibition of Ach- induced response at 10 uM at -70 mV holding potential preincubated for 5 mins followed by Ach stimulation by voltage-clamp based electrophysiological method. Format: cell-based. The conditions noted are these: Oocyte.

The target in assay [16] is Neuronal acetylcholine receptor; alpha4/beta2 (Rattus norvegicus) (UniProt P09483+P12390). Put plainly: Antagonist activity at rat alpha4beta2 nAChR expressed in xenopus oocytes assessed as inhibition of Ach- induced response at 10 uM at -70 mV holding potential preincubated for 5 mins followed by Ach stimulation by voltage-clamp based electrophysiological method. Conditions: Oocyte. In kind it is cell-based.

Assay [17] deals with Neuronal acetylcholine receptor; alpha4/beta4 (Rattus norvegicus) (UniProt P09483+P12392). As to the kind of experiment: Antagonist activity at rat alpha4beta4 nAChR expressed in xenopus oocytes assessed as inhibition of Ach- induced response at 10 uM at -70 mV holding potential preincubated for 5 mins followed by Ach stimulation by voltage-clamp based electrophysiological method. Format: cell-based. The conditions noted are these: Oocyte.

Assay [18] concerns the target Neuronal acetylcholine receptor; alpha3/beta2 (Rattus norvegicus) (UniProt P04757+P12390). Put plainly: Antagonist activity at rat alpha3beta2 nAChR expressed in xenopus oocytes assessed as inhibition of Ach- induced response at 10^-5 M at -70 mV holding potential preincubated for 5 mins followed by Ach stimulation by voltage-clamp based electrophysiological method relative to control. In kind it is cell-based. Also noted: scale not given: the % may be the effect or the level left. Conditions: Oocyte, filed as antagonist, dose 1.0 10^-5M.

`C[C@@H]1NC(=O)[C@@H]2CSSC[C@H](N)C(=O)N[C@@H](CSSC[C@@H](C(N)=O)NC(=O)[C@H](Cc3cnc[nH]3)NC(=O)[C@H](CCC(=O)O)NC(=O)[C@H](Cc3cnc[nH]3)NC1=O)C(=O)N[C@@H](CO)C(=O)N[C@@H](CC(N)=O)C(=O)N1CCC[C@H]1C(=O)N1CCC[C@H]1C(=O)N2` (H-CCSNPPCAHEHC-NH2; disulfide 1-7, 2-12): the concentration for half-maximal inhibition (IC50) was 1.81 µM in [1]; over 10 µM in assay [2]; 4.63 µM in assay [3]; 3.3 µM in assay [4]; over 10 µM in assay [5]; over 10 µM in assay [6]. Also, the IC50 in assay [7], in assay [8], in assay [9] and in assay [10] was over 10 µM each time. Moreover, the Activity in assay [11] is under 50%. In addition, the inhibition entry in [12], in assay [13], in [14], in assay [15], in assay [16] and in [17] was “inactive” each time.

`C[C@@H]1NC(=O)[C@@H]2CSSC[C@H](NC(=O)[C@@H](N)CCC(N)=O)C(=O)N[C@@H](CSSC[C@@H](C(=O)N[C@@H](CCCNC(=N)N)C(=O)O)NC(=O)[C@H](Cc3cnc[nH]3)NC(=O)[C@H](CCC(=O)O)NC(=O)[C@H](Cc3cnc[nH]3)NC1=O)C(=O)N[C@@H](CO)C(=O)N[C@@H](CC(N)=O)C(=O)N1CCC[C@H]1C(=O)N1CCC[C@H]1C(=O)N2` (H-QCCSNPPCAHEHCR-OH; disulfide 2-8, 3-13): the 50% inhibitory concentration (IC50) in assay [1] was 1.76 µM; in [2], over 10 µM; in [3], over 10 µM; in assay [4], 5.3 µM; in assay [5], over 10 µM; in assay [6], over 10 µM. Moreover, the IC50 in [7], in assay [8], in assay [9] and in assay [10] was over 10 µM throughout. Moreover, in [18], the Activity was under 50%. In addition, the inhibition result in assay [12], in assay [13], in assay [14], in assay [15], in assay [16] and in [17] was “inactive” in each case.
